# The kinase profiling compilation of Christmann-Franck et al. (2016)
# What was measured:
# Assay in all cases: KINOMEscan competition binding
# Conditions in all cases: compound 10.0 µM
# BLK (human) = BLK (human) (UniProt P51451)
# CAMK2B (human) = CAMK2B (human) (UniProt Q13554)
# CAMK2D (human) = CAMK2D (human) (UniProt Q13557)
# CAMK2G (human) = CAMK2G (human) (UniProt Q13555)
# CAMKK1 (human) = CAMKK1 (human) (UniProt Q8N5S9)
# CDK19 (human) = CDK19 (human) (UniProt Q9BWU1)
# CDK2 (human) = CDK2 (human) (UniProt P24941)
# CDK9 (human) = CDK9 (human) (UniProt P50750)
# CDKL3 (human) = CDKL3 (human) (UniProt Q8IVW4)
# CSNK1A1L (human) = CSNK1A1L (human) (UniProt Q8N752)
# DCLK2 (human) = DCLK2 (human) (UniProt Q8N568)
# DDR2 (human) = DDR2 (human) (UniProt Q16832)
# DYRK2 (human) = DYRK2 (human) (UniProt Q92630)
# EPHB6 (human) = EPHB6 (human) (UniProt O15197)
# FER (human) = FER (human) (UniProt P16591)
# FGFR1 (human) = FGFR1 (human) (UniProt P11362)
# IGF1R (human) = IGF1R (human) (UniProt P08069)
# IRAK3 (human) = IRAK3 (human) (UniProt Q9Y616)
# [1] = molecular target: JAK3 JH1 catalytic (human) (UniProt P52333)
# LIMK1 (human) = LIMK1 (human) (UniProt P53667)
# MAP3K15 (human) = MAP3K15 (human) (UniProt Q6ZN16)
# MAP3K6 (human) = MAP3K6 (human) (UniProt O95382)
# MAP3K9 (human) = MAP3K9 (human) (UniProt P80192)
# MAPK6 (human) = MAPK6 (human) (UniProt Q16659)
# MAPK8 (human) = MAPK8 (human) (UniProt P45983)
# MAST1 (human) = MAST1 (human) (UniProt Q9Y2H9)
# MATK (human) = MATK (human) (UniProt P42679)
# MYLK4 (human) = MYLK4 (human) (UniProt Q86YV6)
# NEK7 (human) = NEK7 (human) (UniProt Q8TDX7)
# PAK4 (human) = PAK4 (human) (UniProt O96013)
# PRKCQ (human) = PRKCQ (human) (UniProt Q04759)
# [2] = tested on: RET (human), P07949 [M918T]
# RPS6KA5 KD2 (human) = RPS6KA5 KD2 (human) (UniProt O75582)
# SRMS (human) = SRMS (human) (UniProt Q9H3Y6)
# SRPK1 (human) = SRPK1 (human) (UniProt Q96SB4)
# STK16 (human) = STK16 (human) (UniProt O75716)
# TNK2 (human) = TNK2 (human) (UniProt Q07912)
# TNNI3K (human) = TNNI3K (human) (UniProt Q59H18)
# MTOR (human) = MTOR (human) (UniProt P42345)
# PIP5K1C (human) = PIP5K1C (human) (UniProt O60331)
# Sequence of JAK3 JH1 catalytic (human) (P52333 whole entry, looked up): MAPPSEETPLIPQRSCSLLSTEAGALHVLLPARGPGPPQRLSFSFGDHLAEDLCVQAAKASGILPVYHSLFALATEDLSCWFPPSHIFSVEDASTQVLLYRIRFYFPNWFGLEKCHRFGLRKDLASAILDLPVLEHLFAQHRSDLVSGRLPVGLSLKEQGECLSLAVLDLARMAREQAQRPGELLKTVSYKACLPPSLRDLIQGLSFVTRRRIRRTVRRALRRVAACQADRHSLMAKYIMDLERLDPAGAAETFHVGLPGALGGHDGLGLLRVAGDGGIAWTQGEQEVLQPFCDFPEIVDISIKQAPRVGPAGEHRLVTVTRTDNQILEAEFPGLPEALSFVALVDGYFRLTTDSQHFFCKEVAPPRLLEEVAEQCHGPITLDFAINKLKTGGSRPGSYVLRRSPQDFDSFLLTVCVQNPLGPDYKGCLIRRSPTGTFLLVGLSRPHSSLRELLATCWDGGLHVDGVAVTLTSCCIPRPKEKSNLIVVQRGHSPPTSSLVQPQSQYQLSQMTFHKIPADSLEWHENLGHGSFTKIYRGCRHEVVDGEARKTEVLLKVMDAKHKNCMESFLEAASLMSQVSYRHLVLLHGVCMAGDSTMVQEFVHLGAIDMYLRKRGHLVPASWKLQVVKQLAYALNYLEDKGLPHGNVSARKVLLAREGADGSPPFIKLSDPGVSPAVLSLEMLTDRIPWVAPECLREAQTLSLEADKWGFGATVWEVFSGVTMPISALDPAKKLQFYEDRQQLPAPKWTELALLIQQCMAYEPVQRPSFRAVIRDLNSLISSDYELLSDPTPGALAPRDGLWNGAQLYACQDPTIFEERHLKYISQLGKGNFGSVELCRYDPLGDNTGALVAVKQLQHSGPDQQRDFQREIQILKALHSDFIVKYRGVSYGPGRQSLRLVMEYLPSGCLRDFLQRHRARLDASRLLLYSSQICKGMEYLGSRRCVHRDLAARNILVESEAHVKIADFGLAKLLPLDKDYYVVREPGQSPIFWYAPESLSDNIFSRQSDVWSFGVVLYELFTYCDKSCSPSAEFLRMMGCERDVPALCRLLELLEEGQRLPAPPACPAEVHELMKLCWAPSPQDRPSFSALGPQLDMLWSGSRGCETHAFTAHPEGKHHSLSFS
# Sequence of STK16 (human) (O75716 whole entry, looked up): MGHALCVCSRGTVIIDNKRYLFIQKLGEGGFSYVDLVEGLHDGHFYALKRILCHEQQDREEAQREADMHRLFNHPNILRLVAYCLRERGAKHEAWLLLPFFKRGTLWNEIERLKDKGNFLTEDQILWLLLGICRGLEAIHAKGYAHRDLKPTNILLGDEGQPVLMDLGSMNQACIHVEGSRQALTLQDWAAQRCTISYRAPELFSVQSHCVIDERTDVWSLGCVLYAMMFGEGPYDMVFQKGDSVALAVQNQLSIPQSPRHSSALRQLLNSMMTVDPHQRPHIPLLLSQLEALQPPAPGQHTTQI
# Sequence of CSNK1A1L (human) (Q8N752 whole entry, looked up): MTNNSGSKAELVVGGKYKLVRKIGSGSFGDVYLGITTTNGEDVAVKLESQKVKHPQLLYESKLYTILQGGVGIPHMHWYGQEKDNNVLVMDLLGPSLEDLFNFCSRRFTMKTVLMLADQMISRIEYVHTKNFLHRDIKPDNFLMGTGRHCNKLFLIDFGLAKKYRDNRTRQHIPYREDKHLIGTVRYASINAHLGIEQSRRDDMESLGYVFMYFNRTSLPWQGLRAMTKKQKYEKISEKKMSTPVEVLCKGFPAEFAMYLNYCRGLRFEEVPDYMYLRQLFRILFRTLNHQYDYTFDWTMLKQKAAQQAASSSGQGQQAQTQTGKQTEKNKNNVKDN
# Sequence of MYLK4 (human) (Q86YV6 whole entry, looked up): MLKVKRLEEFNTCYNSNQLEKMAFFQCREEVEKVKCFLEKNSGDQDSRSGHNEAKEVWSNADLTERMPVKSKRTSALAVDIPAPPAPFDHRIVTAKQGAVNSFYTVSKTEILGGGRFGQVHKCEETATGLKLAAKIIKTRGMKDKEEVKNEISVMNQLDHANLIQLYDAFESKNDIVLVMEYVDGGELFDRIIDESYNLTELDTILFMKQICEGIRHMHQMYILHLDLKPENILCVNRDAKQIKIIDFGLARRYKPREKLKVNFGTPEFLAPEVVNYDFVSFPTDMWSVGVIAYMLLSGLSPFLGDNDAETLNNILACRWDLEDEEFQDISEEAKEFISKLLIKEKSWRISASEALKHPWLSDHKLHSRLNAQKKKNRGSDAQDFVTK
# Sequence of CDK9 (human) (P50750 whole entry, looked up): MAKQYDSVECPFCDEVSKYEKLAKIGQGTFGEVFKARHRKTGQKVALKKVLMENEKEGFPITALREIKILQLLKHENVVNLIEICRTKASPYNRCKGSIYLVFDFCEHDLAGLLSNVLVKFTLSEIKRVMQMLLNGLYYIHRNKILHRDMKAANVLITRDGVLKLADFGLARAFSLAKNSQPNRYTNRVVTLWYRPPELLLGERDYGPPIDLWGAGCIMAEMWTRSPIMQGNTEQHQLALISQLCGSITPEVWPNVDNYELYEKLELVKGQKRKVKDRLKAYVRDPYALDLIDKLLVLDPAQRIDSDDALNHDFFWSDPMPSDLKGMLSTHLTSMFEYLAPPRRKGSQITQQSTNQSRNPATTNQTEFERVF
# Sequence of MAP3K9 (human) (P80192 whole entry, looked up): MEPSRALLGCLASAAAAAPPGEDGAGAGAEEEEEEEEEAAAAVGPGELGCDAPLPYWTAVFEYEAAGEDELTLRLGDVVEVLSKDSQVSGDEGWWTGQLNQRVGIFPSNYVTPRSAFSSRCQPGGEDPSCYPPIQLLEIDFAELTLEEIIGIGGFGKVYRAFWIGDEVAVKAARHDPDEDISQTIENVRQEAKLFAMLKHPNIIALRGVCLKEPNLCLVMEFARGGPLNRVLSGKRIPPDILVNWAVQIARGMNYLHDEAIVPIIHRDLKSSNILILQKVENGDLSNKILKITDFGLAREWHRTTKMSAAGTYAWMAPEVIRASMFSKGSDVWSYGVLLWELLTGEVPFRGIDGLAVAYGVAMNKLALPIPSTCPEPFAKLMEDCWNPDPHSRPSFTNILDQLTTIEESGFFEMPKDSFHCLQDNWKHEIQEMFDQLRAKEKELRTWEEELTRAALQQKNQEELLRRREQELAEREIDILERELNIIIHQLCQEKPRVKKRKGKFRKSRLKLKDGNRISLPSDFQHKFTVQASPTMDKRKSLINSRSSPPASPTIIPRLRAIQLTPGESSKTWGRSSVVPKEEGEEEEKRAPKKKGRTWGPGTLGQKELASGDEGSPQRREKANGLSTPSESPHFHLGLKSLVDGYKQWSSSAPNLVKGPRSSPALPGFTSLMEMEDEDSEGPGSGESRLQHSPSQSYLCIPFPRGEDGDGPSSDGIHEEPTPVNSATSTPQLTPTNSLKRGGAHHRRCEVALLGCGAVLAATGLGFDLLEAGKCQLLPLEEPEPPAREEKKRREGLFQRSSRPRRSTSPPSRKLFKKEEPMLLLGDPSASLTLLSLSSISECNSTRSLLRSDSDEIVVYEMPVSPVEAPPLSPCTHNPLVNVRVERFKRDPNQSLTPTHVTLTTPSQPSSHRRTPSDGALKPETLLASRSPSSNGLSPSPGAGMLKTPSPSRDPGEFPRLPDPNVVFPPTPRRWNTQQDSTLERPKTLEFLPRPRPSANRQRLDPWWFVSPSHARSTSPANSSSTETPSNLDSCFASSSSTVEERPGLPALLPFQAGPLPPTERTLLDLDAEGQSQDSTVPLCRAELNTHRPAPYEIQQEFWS
# Sequence of CDKL3 (human) (Q8IVW4 whole entry, looked up): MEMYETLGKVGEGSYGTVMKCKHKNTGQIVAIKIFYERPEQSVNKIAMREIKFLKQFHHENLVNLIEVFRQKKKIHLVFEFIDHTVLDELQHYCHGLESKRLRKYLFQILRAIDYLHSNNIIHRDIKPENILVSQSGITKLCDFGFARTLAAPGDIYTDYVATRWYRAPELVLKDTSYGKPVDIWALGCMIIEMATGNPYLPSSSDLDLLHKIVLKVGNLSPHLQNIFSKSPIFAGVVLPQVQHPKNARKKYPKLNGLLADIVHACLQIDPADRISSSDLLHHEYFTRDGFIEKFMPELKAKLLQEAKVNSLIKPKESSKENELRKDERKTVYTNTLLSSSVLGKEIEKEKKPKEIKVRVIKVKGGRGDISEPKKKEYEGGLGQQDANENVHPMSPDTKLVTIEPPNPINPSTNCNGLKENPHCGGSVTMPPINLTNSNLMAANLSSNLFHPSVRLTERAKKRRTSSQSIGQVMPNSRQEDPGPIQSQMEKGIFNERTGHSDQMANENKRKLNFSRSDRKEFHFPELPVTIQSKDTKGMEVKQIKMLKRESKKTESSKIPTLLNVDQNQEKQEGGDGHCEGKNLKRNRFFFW
# Sequence of FGFR1 (human) (P11362 whole entry, looked up): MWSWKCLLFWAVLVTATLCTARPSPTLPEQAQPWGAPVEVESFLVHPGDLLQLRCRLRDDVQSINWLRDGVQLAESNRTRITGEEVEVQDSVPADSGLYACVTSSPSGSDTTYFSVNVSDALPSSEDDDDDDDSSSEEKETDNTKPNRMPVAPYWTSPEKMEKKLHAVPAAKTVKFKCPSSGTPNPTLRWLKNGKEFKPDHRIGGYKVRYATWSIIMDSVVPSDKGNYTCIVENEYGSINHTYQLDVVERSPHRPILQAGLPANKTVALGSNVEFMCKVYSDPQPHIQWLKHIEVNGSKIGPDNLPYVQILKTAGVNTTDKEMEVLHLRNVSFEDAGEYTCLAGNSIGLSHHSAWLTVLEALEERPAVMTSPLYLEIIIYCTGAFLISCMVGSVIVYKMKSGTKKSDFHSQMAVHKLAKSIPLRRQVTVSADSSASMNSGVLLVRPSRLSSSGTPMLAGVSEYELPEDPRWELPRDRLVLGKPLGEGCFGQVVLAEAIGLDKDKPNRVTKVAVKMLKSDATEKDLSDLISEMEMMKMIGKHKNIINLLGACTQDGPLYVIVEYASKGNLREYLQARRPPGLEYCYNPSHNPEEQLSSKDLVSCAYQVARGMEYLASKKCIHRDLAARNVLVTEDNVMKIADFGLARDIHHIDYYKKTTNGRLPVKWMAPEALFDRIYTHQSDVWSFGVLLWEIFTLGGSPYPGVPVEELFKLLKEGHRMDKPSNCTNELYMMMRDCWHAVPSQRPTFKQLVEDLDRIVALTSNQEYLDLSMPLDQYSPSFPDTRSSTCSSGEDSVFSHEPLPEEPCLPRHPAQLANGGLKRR
"kinase still bound, per cent of control (CAMK2D (human)) [%]","kinase still bound, per cent of control (CAMK2G (human)) [%]","kinase still bound, per cent of control (CAMKK1 (human)) [%]","kinase still bound, per cent of control (CDK19 (human)) [%]","kinase still bound, per cent of control (CDK2 (human)) [%]","kinase still bound, per cent of control (CDK9 (human)) [%]","kinase still bound, per cent of control (CDKL3 (human)) [%]","kinase still bound, per cent of control (CSNK1A1L (human)) [%]","kinase still bound, per cent of control (DCLK2 (human)) [%]","kinase still bound, per cent of control (DDR2 (human)) [%]","kinase still bound, per cent of control (DYRK2 (human)) [%]","kinase still bound, per cent of control (EPHB6 (human)) [%]","kinase still bound, per cent of control (FER (human)) [%]","kinase still bound, per cent of control (FGFR1 (human)) [%]","kinase still bound, per cent of control (IGF1R (human)) [%]","kinase still bound, per cent of control (IRAK3 (human)) [%]","kinase still bound, per cent of control [1] [%]","kinase still bound, per cent of control (LIMK1 (human)) [%]","kinase still bound, per cent of control (MAP3K15 (human)) [%]","kinase still bound, per cent of control (MAP3K6 (human)) [%]",Compound,also measured
100,100,100,100,100,100,100,100,100,100,100,100,100,100,100,100,100,100,100,100,CS(=O)(=O)N1CCN(Cc2cc3nc(-c4cccc5[nH]ncc45)nc(N4CCOCC4)c3s2)CC1,"kinase still bound, per cent of control (BLK (human)): 100%; kinase still bound, per cent of control (CAMK2B (human)): 100%; kinase still bound, per cent of control (MAP3K9 (human)): 100%; kinase still bound, per cent of control (MAPK6 (human)): 100%; kinase still bound, per cent of control (MAPK8 (human)): 100%; kinase still bound, per cent of control (MAST1 (human)): 100%; kinase still bound, per cent of control (MATK (human)): 100%; kinase still bound, per cent of control (MYLK4 (human)): 100%; kinase still bound, per cent of control (NEK7 (human)): 100%; kinase still bound, per cent of control (PAK4 (human)): 100%; kinase still bound, per cent of control (PRKCQ (human)): 100%; kinase still bound, per cent of control [2]: 100%; kinase still bound, per cent of control (RPS6KA5 KD2 (human)): 100%; kinase still bound, per cent of control (SRMS (human)): 100%; kinase still bound, per cent of control (SRPK1 (human)): 100%; kinase still bound, per cent of control (STK16 (human)): 100%; kinase still bound, per cent of control (TNK2 (human)): 100%; kinase still bound, per cent of control (TNNI3K (human)): 100%"
100,100,100,100,100,100,100,100,100,30,100,5.2,100,0.25,100,100,100,100,100,100,CCN(CC)CCCCNc1ncc2c(n1)N(C)C(=O)N(c1c(Cl)c(OC)cc(OC)c1Cl)C2,"kinase still bound, per cent of control (BLK (human)): 100%; kinase still bound, per cent of control (CAMK2B (human)): 100%; kinase still bound, per cent of control (MAP3K9 (human)): 100%; kinase still bound, per cent of control (MAPK6 (human)): 100%; kinase still bound, per cent of control (MAPK8 (human)): 100%; kinase still bound, per cent of control (MAST1 (human)): 100%; kinase still bound, per cent of control (MATK (human)): 100%; kinase still bound, per cent of control (MYLK4 (human)): 100%; kinase still bound, per cent of control (NEK7 (human)): 100%; kinase still bound, per cent of control (PAK4 (human)): 100%; kinase still bound, per cent of control (PRKCQ (human)): 100%; kinase still bound, per cent of control [2]: 100%; kinase still bound, per cent of control (RPS6KA5 KD2 (human)): 100%; kinase still bound, per cent of control (SRMS (human)): 100%; kinase still bound, per cent of control (SRPK1 (human)): 100%; kinase still bound, per cent of control (STK16 (human)): 100%; kinase still bound, per cent of control (TNK2 (human)): 100%; kinase still bound, per cent of control (TNNI3K (human)): 100%"
23,31,100,100,100,100,100,100,0.45,100,100,34,32,100,100,100,100,100,100,100,COc1cc(N2CCN(C)CC2)ccc1Nc1ncc2c(n1)N(C)c1ccccc1C(=O)N2C,"kinase still bound, per cent of control (BLK (human)): 100%; kinase still bound, per cent of control (CAMK2B (human)): 100%; kinase still bound, per cent of control (MAP3K9 (human)): 100%; kinase still bound, per cent of control (MAPK6 (human)): 100%; kinase still bound, per cent of control (MAPK8 (human)): 100%; kinase still bound, per cent of control (MAST1 (human)): 100%; kinase still bound, per cent of control (MATK (human)): 100%; kinase still bound, per cent of control (MYLK4 (human)): 100%; kinase still bound, per cent of control (NEK7 (human)): 100%; kinase still bound, per cent of control (PAK4 (human)): 100%; kinase still bound, per cent of control (PRKCQ (human)): 100%; kinase still bound, per cent of control [2]: 100%; kinase still bound, per cent of control (RPS6KA5 KD2 (human)): 100%; kinase still bound, per cent of control (SRMS (human)): 100%; kinase still bound, per cent of control (SRPK1 (human)): 100%; kinase still bound, per cent of control (STK16 (human)): 100%; kinase still bound, per cent of control (TNK2 (human)): 3.2%; kinase still bound, per cent of control (TNNI3K (human)): 100%"

Compound,"kinase still bound, per cent of control (CAMK2D (human)) [%]","kinase still bound, per cent of control (CAMK2G (human)) [%]","kinase still bound, per cent of control (CAMKK1 (human)) [%]","kinase still bound, per cent of control (CDK19 (human)) [%]","kinase still bound, per cent of control (CDK2 (human)) [%]","kinase still bound, per cent of control (CDK9 (human)) [%]","kinase still bound, per cent of control (CDKL3 (human)) [%]","kinase still bound, per cent of control (CSNK1A1L (human)) [%]","kinase still bound, per cent of control (DCLK2 (human)) [%]","kinase still bound, per cent of control (DDR2 (human)) [%]","kinase still bound, per cent of control (DYRK2 (human)) [%]","kinase still bound, per cent of control (EPHB6 (human)) [%]","kinase still bound, per cent of control (FER (human)) [%]","kinase still bound, per cent of control (FGFR1 (human)) [%]","kinase still bound, per cent of control (IGF1R (human)) [%]","kinase still bound, per cent of control (IRAK3 (human)) [%]","kinase still bound, per cent of control [1] [%]","kinase still bound, per cent of control (LIMK1 (human)) [%]","kinase still bound, per cent of control (MAP3K15 (human)) [%]","kinase still bound, per cent of control (MAP3K6 (human)) [%]",also measured
C[C@@H](Oc1cc(-c2cnn(C3CCNCC3)c2)cnc1N)c1c(Cl)ccc(F)c1Cl,100,100,60,100,81,88,68,100,1.2,0,9.6,0.2,2,46,0.9,0.95,0.65,2.7,73,87,"kinase still bound, per cent of control (MAP3K9 (human)): 80%; kinase still bound, per cent of control (MAPK6 (human)): 90%; kinase still bound, per cent of control (MAPK8 (human)): 100%; kinase still bound, per cent of control (MAST1 (human)): 100%; kinase still bound, per cent of control (MATK (human)): 64%; kinase still bound, per cent of control (MTOR (human)): 100%; kinase still bound, per cent of control (MYLK4 (human)): 86%; kinase still bound, per cent of control (NEK7 (human)): 6.7%; kinase still bound, per cent of control (PAK4 (human)): 80%; kinase still bound, per cent of control (PIP5K1C (human)): 63%; kinase still bound, per cent of control (PRKCQ (human)): 88%; kinase still bound, per cent of control (RPS6KA5 KD2 (human)): 95%; kinase still bound, per cent of control (SRMS (human)): 54%; kinase still bound, per cent of control (SRPK1 (human)): 26%; kinase still bound, per cent of control (STK16 (human)): 63%; kinase still bound, per cent of control (TNK2 (human)): 2.8%"
